# Assays:
# [1] = tested on: HAP1 MTAP-deleted cell line; test: Viability assay, MTAP-deleted cell line; assay type: cell-based; conditions: Homo sapiens, HAP1, viability assay, read-out: HAP1 MTAP deleted viability
# Source text: Table 1 additionally indicates IC50 values in a viability assay for the MTAP-deleted cell line (column 10), indicating the effect of treatment with compound on cell survival.
# [2] = tested on: HAP1 MTAP-intact cell line; test: SDMA in-cell western assay, HAP1 MTAP-intact; assay type: cell-based; conditions: Homo sapiens, HAP1, SDMA in-cell western, HAP1 MTAP-intact; read-out: MTAP HAP1 intact IC50
# Method in brief: (§1)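 MTAP-null vs endogenous-MTAP HAP1 isogenic cells; in-cell western SDMA readout; IC50 per line.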
# PRMT5 [3] = target: T1, PRMT5 (Homo sapiens, UniProt O14744); test: PRMT5 biochemical IC50 assay with SAM as cofactor; conditions: PRMT5, SAM as cofactor; read-out: SAM IC50
# T1 construct: purchased Viva (custom protein)
# [4] = tested on: HAP1 MTAP-deleted cell line; test: SDMA in-cell western assay, HAP1 MTAP-deleted; assay type: cell-based; conditions: for IC50: Homo sapiens, HAP1, SDMA in-cell western, HAP1 MTAP-deleted; for MTAP intact/deleted ratio: IC50 ratio HAP1 MTAP-intact / HAP1 MTAP-deleted, SDMA in-cell western
# Method in brief: as §1
# PRMT5 [5] = target: T1, PRMT5; test: PRMT5 biochemical IC50 assay with no cofactor; conditions: PRMT5, no cofactor; read-out: No Cofactor/rel IC50
# Source text: Table 1 indicates IC50 values (μM) against PRMT5 for exemplary compounds in the presence of SAM as cofactor, with no cofactor, and with MTA as cofactor, respectively (columns 4-6). […] Ki values can be calculated from the IC50 values as described in the Examples section. As detailed in the Examples section, for the assay performed in the presence of SAM, IC50=Ki×1.5 (Ki=IC50/1.5).
# PRMT5 [6] = target: T1, PRMT5; test: PRMT5 biochemical IC50 assay with MTA as cofactor; conditions: PRMT5, MTA as cofactor; read-out: MTA IC50
# [7] = read-out: HAP1 MTAP deleted IC50
# [8] = read-out: HAP 1 MTAP deleted IC50
# T1 sequence (O14744 whole entry): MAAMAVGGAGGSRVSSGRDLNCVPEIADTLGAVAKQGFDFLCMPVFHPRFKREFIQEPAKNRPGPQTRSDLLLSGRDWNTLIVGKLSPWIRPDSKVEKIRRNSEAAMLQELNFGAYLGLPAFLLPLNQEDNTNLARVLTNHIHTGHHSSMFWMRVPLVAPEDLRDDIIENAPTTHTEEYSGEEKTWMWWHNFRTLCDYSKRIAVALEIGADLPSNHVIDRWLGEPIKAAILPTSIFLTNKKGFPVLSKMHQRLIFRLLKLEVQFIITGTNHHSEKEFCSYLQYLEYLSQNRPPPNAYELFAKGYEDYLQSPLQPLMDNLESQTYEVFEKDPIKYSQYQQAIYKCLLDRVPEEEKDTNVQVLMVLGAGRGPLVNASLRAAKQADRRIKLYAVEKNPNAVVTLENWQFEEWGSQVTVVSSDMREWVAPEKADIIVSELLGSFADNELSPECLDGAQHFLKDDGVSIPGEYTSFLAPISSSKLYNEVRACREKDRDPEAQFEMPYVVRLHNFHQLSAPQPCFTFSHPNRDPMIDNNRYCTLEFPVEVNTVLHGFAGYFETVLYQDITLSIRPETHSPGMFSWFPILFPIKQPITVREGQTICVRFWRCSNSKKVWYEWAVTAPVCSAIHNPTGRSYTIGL
# T1 sequence (Q9BQA1 whole entry partner): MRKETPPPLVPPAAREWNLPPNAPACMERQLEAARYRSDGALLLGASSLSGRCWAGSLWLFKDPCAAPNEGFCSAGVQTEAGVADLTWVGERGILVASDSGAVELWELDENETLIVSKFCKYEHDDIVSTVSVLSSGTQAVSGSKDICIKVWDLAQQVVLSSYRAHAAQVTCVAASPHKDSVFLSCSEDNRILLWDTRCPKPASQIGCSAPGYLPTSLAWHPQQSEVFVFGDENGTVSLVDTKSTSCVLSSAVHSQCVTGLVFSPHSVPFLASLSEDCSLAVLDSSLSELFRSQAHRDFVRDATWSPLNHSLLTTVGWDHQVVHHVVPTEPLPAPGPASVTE
Structure (SMILES),IC50 ([1]; HAP1 MTAP-deleted) [nM],IC50 [2] [nM],IC50 (PRMT5 [3]) [nM],"IC50 [4, 7] [nM]",MTAP intact/deleted ratio [4],IC50 (PRMT5 [5]) [nM],IC50 (PRMT5 [6]) [nM],IC50 ([1]; MTAP-deleted cell line) [nM],"IC50 [4, 8] [nM]"
"C[C@H]1CC[C@H](c2cc3[nH]ncc3s2)N(C(=O)C(=O)Nc2cncc(C(N)=O)c2)C1 (single isomer, unassigned) [Compound 873, 5-(2-(5-methyl-2-(1H-thieno[3,2-c]pyrazol-5-yl)piperidin-1-yl)-2-oxoacetamido)nicotinamide]",< 1000,> 1000,50 to 500,< 100,A (an IC50 ratio greater than or equal to 10 fold),50 to 500,< 50,–,–
"Cc1ncc(NC(=O)C(=O)N2C[C@H](C)CC[C@H]2c2ccc3c(c2)CCC(=O)N3)cc1C(F)F (single isomer, unassigned) [Compound 874]",< 1000,100 to 1000,50 to 500,< 100,A (an IC50 ratio greater than or equal to 10 fold),50 to 500,< 50,–,–
"CNc1nc2cc([C@@H]3CC[C@@H](C)CN3C(=O)C(=O)Nc3cnc(OC)c(C(N)=O)c3)ccc2s1 (single isomer, unassigned) [Compound 875]",> 10000,> 1000,> 500,> 1000,B (an IC50 ratio greater than or equal to 3 fold but lower than 10 fold),> 500,> 500,–,–
"CNc1ccc([C@H]2CC[C@H](C)CN2C(=O)C(=O)Nc2cnc(N)c(C)c2)cn1 (single isomer, unassigned) [Compound 876]",> 10000,> 1000,> 500,> 1000,B (an IC50 ratio greater than or equal to 3 fold but lower than 10 fold),> 500,> 500,–,–
"CNc1nc2cc([C@@H]3CC[C@@H](C)CN3C(=O)C(=O)Nc3cncc(C(N)=O)c3)ccc2s1 (single isomer, unassigned) [Compound 877]",< 1000,> 1000,50 to 500,< 100,A (an IC50 ratio greater than or equal to 10 fold),50 to 500,< 50,–,–
"CCc1cc(NC(=O)C(=O)N2C[C@@H](C)CC[C@@H]2c2ccc(NC)nc2)cnc1N (single isomer, unassigned) [Compound 878]",> 10000,> 1000,> 500,> 1000,C (an IC50 ratio of less than 3 fold),> 500,> 500,–,–
"COc1ncc(NC(=O)C(=O)N2C[C@@H](C)CC[C@@H]2c2ccn(-c3cc[nH]n3)n2)cc1C(N)=O (single isomer, unassigned) [Compound 881]",> 10000,> 1000,> 500,> 1000,B (an IC50 ratio greater than or equal to 3 fold but lower than 10 fold),> 500,> 500,–,–
"C[C@H]1CC[C@H](c2ccn(-c3cc[nH]n3)n2)N(C(=O)C(=O)Nc2cncc(C(N)=O)c2)C1 (single isomer, unassigned) [Compound 882]",> 10000,> 1000,> 500,> 1000,C (an IC50 ratio of less than 3 fold),> 500,> 500,–,–
"C[C@@H]1CC[C@@H](c2cccc3[nH]ncc23)N(C(=O)C(=O)Nc2cncc(C(N)=O)c2)C1 (single isomer, unassigned) [Compound 883]",> 10000,> 1000,> 500,> 1000,C (an IC50 ratio of less than 3 fold),> 500,> 500,–,–
"CCc1cc(NC(=O)C(=O)N2C[C@@H](C)CC[C@@H]2c2ccc3sc(NC)nc3c2)cnc1N (single isomer, unassigned) [Compound 884]",–,100 to 1000,50 to 500,–,A (an IC50 ratio greater than or equal to 10 fold),< 50,< 50,< 1000,< 100
"Cc1cc(NC(=O)C(=O)N2C[C@@H](C)CC[C@@H]2c2ccc(-c3cncs3)cc2)cnc1N (single isomer, unassigned) [Compound 887, N-(6-amino-5-methylpyridin-3-yl)-2-(5-methyl-2-(4-(thiazol-5-yl)phenyl)piperidin-1-yl)-2-oxoacetamide]",–,< 100,50 to 500,–,B (an IC50 ratio greater than or equal to 3 fold but lower than 10 fold),50 to 500,< 50,< 1000,< 100
"CCc1cc(NC(=O)C(=O)N2C[C@@H](C)CC[C@@H]2c2ccc(NC(C)=O)cc2)cnc1N (single isomer, unassigned) [Compound 890]",–,100 to 1000,50 to 500,–,A (an IC50 ratio greater than or equal to 10 fold),< 50,< 50,< 1000,< 100
"CCc1cc(NC(=O)C(=O)N2C[C@H](C)CC[C@H]2c2ccc(NC(C)=O)cc2)cnc1N (single isomer, unassigned) [Compound 893]",–,> 1000,> 500,–,B (an IC50 ratio greater than or equal to 3 fold but lower than 10 fold),> 500,> 500,> 10000,> 1000
"COc1ncc(NC(=O)C(=O)N2C[C@H](C)CC[C@H]2c2ccn(-c3cc[nH]n3)n2)cc1C(N)=O (single isomer, unassigned) [Compound 894]",–,> 1000,50 to 500,–,A (an IC50 ratio greater than or equal to 10 fold),50 to 500,< 50,1000 to 10000,< 100
"Cc1cc(NC(=O)C(=O)N2C[C@H](C)CC[C@H]2c2cccc(S(C)(=O)=O)c2)cnc1N (single isomer, unassigned) [Compound 895]",–,100 to 1000,50 to 500,–,B (an IC50 ratio greater than or equal to 3 fold but lower than 10 fold),50 to 500,< 50,1000 to 10000,< 100
"CCc1cc(NC(=O)C(=O)N2C[C@H](C)CC[C@H]2c2ccc3sc(NC)nc3c2)cnc1N (single isomer, unassigned) [Compound 896]",–,> 1000,> 500,–,B (an IC50 ratio greater than or equal to 3 fold but lower than 10 fold),> 500,> 500,> 10000,> 1000
"C[C@H]1CC[C@H](c2cccc3[nH]ncc23)N(C(=O)C(=O)Nc2cncc(C(N)=O)c2)C1 (single isomer, unassigned) [Compound 897]",–,> 1000,50 to 500,–,A (an IC50 ratio greater than or equal to 10 fold),50 to 500,< 50,1000 to 10000,< 100
"C[C@@H]1CC[C@@H](c2ccn(-c3cc[nH]n3)n2)N(C(=O)C(=O)Nc2cncc(C(N)=O)c2)C1 (single isomer, unassigned) [Compound 899]",–,> 1000,50 to 500,–,A (an IC50 ratio greater than or equal to 10 fold),50 to 500,< 50,1000 to 10000,100 to 1000
"Cc1cc(NC(=O)C(=O)N2C[C@H](C)CC[C@H]2c2ccc(-c3cncs3)cc2)cnc1N (single isomer, unassigned) [Compound 900, N-(6-amino-5-methylpyridin-3-yl)-2-(5-methyl-2-(4-(thiazol-5-yl)phenyl)piperidin-1-yl)-2-oxoacetamide]",–,> 1000,> 500,–,C (an IC50 ratio of less than 3 fold),> 500,> 500,> 10000,> 1000
"Cc1cc(NC(=O)C(=O)N2C[C@@H](C)CC[C@@H]2c2cccc(S(C)(=O)=O)c2)cnc1N (single isomer, unassigned) [Compound 901]",–,> 1000,> 500,–,C (an IC50 ratio of less than 3 fold),> 500,> 500,> 10000,> 1000
"CCc1cc(NC(=O)C(=O)N2C[C@@H](C)CC[C@@H]2c2ccc(NS(C)(=O)=O)cc2)cnc1N (single isomer, unassigned) [Compound 902]",–,100 to 1000,50 to 500,–,A (an IC50 ratio greater than or equal to 10 fold),< 50,< 50,< 1000,< 100

# — patent US11999727B2 (Tango Therapeutics, Inc., priority 2020, dated 2024)
